Test results from patent US20230101403A1, “METHOD OF TREATING OR AMELIORATING CANCERS DRIVEN BY RECEPTOR TYROSINE KINASE FUSION ONCOGENES, AND COMPOSITIONS FOR THE SAME” (THE TRUSTEES OF THE UNIVERSITY OF PENNSYLVANIA, priority 2021, published 2023).

Columns and labels:
[1] = system: H3122 cells; test: caspase-3 activity reporter (Nucview) in H3122; type: cell-based; details: for killing over untreated cells, single agent: 24 hr
Text: (§1) FIG. 6C depicts the quantification of death in STE-1 cells following 24 hrs of inhibitor treatment. FIG. 6D depicts the number of Erk pulses in cells that died (“D”) and cells that lived (“L”) during 24 hrs of inhibitor treatment. FIG. 6E depicts the percentage of caspase-3+ STE-1 and H3122 cells following 24 hrs of inhibitor treatment.

[2] = system: Erk activity, STE-1 cells; test: live cell imaging of Erk kinase translocation reporter (ErkKTR); type: cell-based; details: for effect on ErkKTR: Erk activity and reactivation pulses: crizotinib 1 μM, erlotinib 1 μM, marimastat 10 μM
Protocol: (§2) Error bars represent 95% confidence intervals. […] FIG. 4I depicts the comparison of EGR1 expression after 6 hr of inhibitor treatment. […] FIG. 5B is the schematic of spatial analysis of Erk signaling in relation to dying cells. Cells within a 32 μm radius of a dying cell were considered neighbors of the dying cell, whereas all other cells were non-neighbors. Neighbors/non-neighbors were identified and tracked for 50 min before the death event, and Erk actvity in these cells was quantified. FIG. 5C depicts the quantification of Erk activity pulses in neighbors (“N”) or non-neighbors (“R”) of each cell-death event in the indicated conditions.
To further understand Erk reactivation, the present study observed Erk activity using live cell imaging of the Erk kinase translocation reporter (ErkKTR) in STE-1 cells (FIG. 4A). ErkKTR is a fluorescence reporter whose localization corresponds with Erk activity: the nuclear localization of ErkKTR indicates low activity of Erk while the cytoplasmic localization indicates high activity of Erk.

[3] = system: STE-1 cells; test: caspase-3 activity reporter (Nucview) in STE-1; type: cell-based; details: for killing over untreated cells, single agent: 24 hr
Protocol: as §1
Percent of Caspase-3 positive cells assessed using NucView 488 afterfive days of treatment with the indicated inhibitors: Alecitinib 1 μM, Erlotinib 1 μM, Marimastat 10 μM.

[4] = system: ppErk, STE-1 cells; test: EGF-induced ppErk induction in STE-1 cells; details: 100 ng/mL EGF, pre-treatment 1 μM
Protocol: Data points represent mean single cell ppErk intensity of three replicates. FIG. 2C depicts the quantification of dynamic range of ppErk induction from experiment in 2C performed over a range of EGF concentrations. […] FIG. 2E depicts the ppErk immunofluoresence intensity response to 50 ng/mL EGF stimulation.
(§3) To determine whether such negative regulation could be observed in the context of native epidermal growth factor receptor (EGFR) signaling, the present study measured ppErk induction upon addition of epidermal growth factor (EGF) in STE-1 and H3122 cells, two NSCLC cell lines driven by EML4-ALK(V1) (FIG. 2A).
(§4) To determine whether the mechanism was predominantly transcriptional or post-translational, the required duration of ALKi pre-incubation to observe an increase in dynamic range was examined. both STE-1 and H3122 cells were preincubated with varying durations of ALK inhibition, and ppErk levels in response to 15 min of EGF stimulation was analyzed.

[5] = system: Erk activity, STE-1 cells
Protocol: as §2
The present study next sought to determine the source of the paracrine signals. […] Signal activation near dying cells was quantified by first identifying the time and location of each cell death event. All cells that were within a 100-pixel radius (˜32 μm, or about a 2-cell radius) of the dying cell for the 50 minutes preceding death were then identified. The present study refers to these as the “neighbors” of the dying cell (FIG. 5B). The present study then counted Erk pulses in the neighbors of a death event and compared to Erk pulses from a randomly selected subset of non-neighbors over that same time interval.

[6] = system: ppErk, STE-1 and H3122 cancer cells; test: single-cell ppErk levels as a function of treatment duration; type: cell-based; details: serum-starved
Text: The present study sought to understand whether relief of EGFR inhibition by EML4-ALK might lead to Erk reactivation in STE-1 and H3122 cancer cells. […] The present study thus further examined Erk reactivation under ALK inhibition combined with marimastat, an inhibitor for matrix metalloproteases that are required for shedding EGF family ligands prior to paracrine signaling.

[7] = system: ppErk, STE-1 cells expressing optoFGFR; test: functional profiling: optoFGFR blue light stimulation, single-cell ppErk immunofluorescence; type: cell-based; details: STE-1 optoFGFR
Text: FIG. 1A illustrates that EML4-ALK+ cancer cells treated with ALK specific tyrosine kinase inhibitor (TKI) often result in a population of persistent/tolerant cells that later develop into resistant colonies. […] FIG. 1C, left panel, illustrates that transmembrane RTK and EML4-ALK protein granules both signal through the same adapter proteins and downstream pathways like Ras/Erk. FIG. 1C, right panel, illustrates the functional profiling method used in determining the extent to which EML4-ALK expression or its inhibition alter signal transmission in cancer cells. FIG. 1D illustrates that optoFGFR allows for blue light stimulation of RTK (optoFGFR) signal transduction. […] FIG. 1F depicts the normalized ppErk fold-change in response to 5 min of blue light stimulation. Blue light intensity ranged from 2% to 60% of maximum (1.45 W/cm^2). Datapoints show mean single-cell ppErk intensity from three replicates.
A method called functional profiling that allows the measurement of how oncogenes and targeted therapies can alter signal transmission was developed. In functional profiling, light-activated ‘optogenetic’ signaling stimuli are apply at specific nodes of a signaling pathway and downstream signals, transcription, and cell fate as a function of oncogene or drug status are observe.
To determine whether EML4-ALK could alter RTK signal transmission properties, a light-sensitive fibroblast growth factor receptor (optoFGFR) was expressed in the STE-1 cancer cell line, which is driven by the EML4-ALK(V1) oncogene. The present study observed signal transmission by applying blue light stimuli and measuring single-cell phospho-Erk levels single-cell immunofluorescence (FIG. 1D). In STE-1 cells, optoFGFR induced only mild double-phosphorylated Erk (ppErk) signal increase above the high basal ppErk levels attributed to active EML4-ALK (FIG. 1E, top). […] Signal dynamic range increased due to lowering of tonic Erk activity from ALK, as well as from an increase in the maximum signal achievable relative to untreated cells. […]

[8] = system: ppErk, H3122 cells; test: EGF-induced ppErk induction in H3122 cells; type: cell-based; details: 100 ng/mL EGF, pre-treatment 1 μM
Text: Data points represent mean single cell ppErk intensity of three replicates.
as §3, §4

[9] = system: EGR1, STE-1 cells; test: EGR1 expression in individual cells after drug treatment; type: cell-based
Protocol: as §2

[10] = system: STE-1 cells; test: cell death in cells imaged over 24 hrs; type: cell-based

SMILES | killing over untreated cells, single agent [1] | effect on ErkKTR: Erk activity and reactivation pulses [2] | killing over untreated cells, single agent [3] | caspase-3-positive cell fraction ([1]; first 24 hr of treatment) [%] | ppErk dynamic range in response to EGF [4] | ErkKTR localization upon treatment ([2]; 1 μM) | median Erk pulses per cell, neighbors of a death ([5]; 50 minutes preceding death, within ~32 μm) [pulses per cell] | proportion of neighbor cells with at least 1 pulse preceding a death event ([5]; neighbors) [%] | proportion of non-neighbor cells with at least 1 pulse preceding a death event ([5]; non-neighbors) [%] | time to reappearance of ERK-hi cells [6] [h] | time within which mean Erk levels decreased dramatically [6] [min] | dynamic range of signal induction (ppErk) ([7]; blue light, pre-treatment 1 μM) [fold] | light stimulation at which increase of dynamic range could be observed ([7]; 1 μM) | dynamic range plateau (induction) at the highest light levels ([7]; 1 μM, highest levels of light stimulation) [fold] | caspase-3-positive cell fraction ([3]; first 24 hr of treatment) [%] | ppErk dynamic range in response to EGF [8] | time EGR1 levels remained low [9] | EGR1 expression (EGR1-high population) ([9]; crizotinib 1 μM, erlotinib 1 μM) | Erk pulses in surviving cells compared to cells that died ([10]; 24 hrs) | cell death, % of cells analyzed ([10]; imaged over 24 hrs) [%]
CNC(=O)[C@@H](NC(=O)[C@H](CC(C)C)[C@H](O)C(=O)NO)C(C)(C)C [marimastat] | Neither erlotinib or marimastat treatment alone showed enhanced killing over untreated cells | no obvious effect on ErkKTR | Neither erlotinib or marimastat treatment alone showed enhanced killing over untreated cells |  |  |  |  |  |  |  |  |  |  |  |  |  |  |  |  | 
C[C@@H](Oc1cc(-c2cnn(C3CCNCC3)c2)cnc1N)c1c(Cl)ccc(F)c1Cl [crizotinib] |  |  |  | 5 | dramatic increase in ppErk dynamic range | induced rapid nuclear translocation of ErkKTR in all cells | 0.23 | 60 | 20 | ≤ 1 | ≤ 10 | ~18 | ≤ 5 % maximal light stimulation | ~25 | 25 | dramatic increase in ppErk dynamic range | at least 2 hrs | a distinct peak of EGR1-high cells appeared and grew at 4 and 6 hrs after drug treatment | surviving cells showed an increased number of Erk pulses compared to cells that died | ~40
C#Cc1cccc(Nc2ncnc3cc(OCCOC)c(OCCOC)cc23)c1 [erlotinib] | Neither erlotinib or marimastat treatment alone showed enhanced killing over untreated cells | no obvious effect on ErkKTR | Neither erlotinib or marimastat treatment alone showed enhanced killing over untreated cells |  |  |  |  |  |  |  |  |  |  |  |  |  |  |  |  | 
